Reference: US12667565B2, “Use of composition for enhancing anticancer effect, comprising ERRy inhibitor as active ingredient” (NOVMETAPHARMA CO., LTD., priority 2019, dated 2026)

Assays:
Huh7-SR cell line [1] = test: Cell death by sorafenib (annexin/PI FACS, cleaved caspase-3); format: cell-based; conditions: Huh7-SR cells; FIGS. 1A to 1C
Procedure: (§1) Hepatocarcinoma cell lines [Huh7 cells (Korea Cell Line Bank (KCLB) No. 60104), SK-Hep cells (ATCC® HTB-52™)] were continuously exposed to sorafenib (gradually increasing to 10 μM) to construct sorafenib-resistant liver cancer cell lines (Huh7-SR and SK-Hep-R cell lines). To evaluate the cancer cell death by FACS, first, a cancer cell line was incubated in FITC-bound annexin and propidium iodide (PI) for 15 minutes, and annexin and PI binding were then measured by flow cytometry to acquire data using a BD Accuri C6 flow cytometer (BD Biosciences) and analyzed with the Accuri C6 analysis program (BD Biosciences)/FlowJo software (FlowJo, LLC.). Cancer cell line death was evaluated using a cleaved caspase-3 antibody (Cell Signaling Technology).

SK-Hep-R cell line [2] = test: as above; format: cell-based; conditions: SK-Hep-R cells; FIGS. 1A to 1C
Procedure: as §1

[3] = tested on: Huh7-R sorafenib-resistant liver cancer cell line; test: Cell proliferation (trypan blue cell count, hemocytometer); format: cell-based; conditions: FIG. 4A
Procedure: (§2) The present inventors have performed experiments using sorafenib-resistant liver cancer cell lines (Huh7-SR and SK-Hep-R cell lines) and a liver cancer cell line-derived animal model (xenograft). To determine an effect of the synthetic compound DN200434, which is an inverse agonist against ERRγ, on the proliferation of liver cancer cells and ROS generation, ROS was measured using a cell count and 2′,7-dichlorofluorescin diacetate (DCF-DA). Finally, after a sorafenib-resistant liver cancer cell line was injected into […] to induce the formation of sorafenib-resistant liver cancer, changes in size of liver cancer were confirmed in the group injected with the inverse agonist against ERRγ (DN200434) and sorafenib and the group injected with the control drug.
(§3) In order to investigate an effect of the compound (DN200434) represented by Formula 1, which is an inverse agonist against ERRγ, on ROS generation in sorafenib-resistant liver cancer cells, the effect was measured by FACS using 2′,7′-dichlorohydrofluorescein diacetate (H2-DCF-DA; Invitrogen, USA) as an ROS probe. Drug-resistant cells were treated with sorafenib (10 μM) and the DN200434 compound (12 μM) for 24 hours, and 10 μM H2-DCF-DA was added to the cells. Then, the cells were incubated for 30 minutes, and washed with PBS, and data was collected using a BD Accuri™ C6 flow cytometer (BD Bioscience, USA), and analyzed using an Accuri™ C6 analysis program (BD Bioscience, USA). To determine the number of cells, the sorafenib-resistant liver cancer cell line was treated with the DN200434 compound (12 μM) in combination with sorafenib (10 μM), and stained with trypan blue, and the number of cells was then measured using a hemocytometer.

[4] = tested on: SK-Hep-R sorafenib-resistant liver cancer cell line; test: as above; format: cell-based; conditions: FIG. 4B
Procedure: as §2, §3

Huh7-SR cell line [5] = test: ROS generation measured by FACS with H2-DCF-DA; format: cell-based; conditions: DN200434 12 μM and sorafenib 10 μM, 24 hours, FIG. 3A
Procedure: (§4) The present inventors have performed experiments using sorafenib-resistant liver cancer cell lines (Huh7-SR and SK-Hep-R cell lines) and a liver cancer cell line-derived animal model (xenograft). To determine an effect of the synthetic compound DN200434, which is an inverse agonist against ERRγ, on the proliferation of liver cancer cells and ROS generation, ROS was measured using a cell count and 2′,7-dichlorofluorescin diacetate (DCF-DA). […]
as §3, with “Drug-resistant cells were treated with sorafenib (10 μM) and the DN200434 compound (12 μM) for 24 hours, and 10 μM H2-DCF-DA was added to the cells.” left out

SK-Hep-R cell line [6] = test: ROS generation measured by FACS with H2-DCF-DA; format: cell-based; conditions: DN200434 12 μM and sorafenib 10 μM, 24 hours, FIG. 3B
Procedure: as §4
as §3, with “Drug-resistant cells were treated with sorafenib (10 μM) and the DN200434 compound (12 μM) for 24 hours, and 10 μM H2-DCF-DA was added to the cells.” left out

[7] = tested on: sorafenib-resistant liver cancer cell line Huh7-R; test: Sorafenib-resistant liver cancer animal model (xenograft); format: in vivo, mice
Procedure: as §2
(§5) The sorafenib-resistant liver cancer cell line Huh7-R was injected into mice in order to construct a sorafenib-resistant liver cancer animal model (xenograft). Thereafter, the inverse agonist against ERRγ (e.g., DN200434 (Formula 1)) was administered in combination with sorafenib, and the size change of the formed mass was measured. In this case, the group in which the sorafenib-resistant liver cancer-derived animal model was treated with sorafenib alone was used as the comparative control.

[8] = tested on: sorafenib-resistant liver cancer cell line SK-Hep-R; test: as above; format: in vivo, mice
Procedure: as §2, §5
An animal model derived from the sorafenib-resistant liver cancer cell line SK-Hep-R was constructed in the same manner as described above, and the effect of co-administration of the DN200434 compound represented by Formula 1, which is an inverse agonist against ERRγ, and sorafenib was confirmed.

[9] = DN200434 12 μM in combination with sorafenib 10 μM

| SMILES | cell death by sorafenib (Huh7-SR cell line [1]) | cell death by sorafenib (SK-Hep-R cell line [2]) | cell proliferation ([3]; sorafenib alone) | cell proliferation ([4]; sorafenib alone) | ROS (Huh7-SR cell line [5]) | ROS (SK-Hep-R cell line [6]) | cell proliferation [3, 9] | cell proliferation [4, 9] | body weight change ([7]; in combination with sorafenib vs sorafenib-alone control, FIG. 5D) | tumor size ([7]; in combination with sorafenib, compared to sorafenib-alone control, FIG. 5A) | tumor weight ([7]; in combination with sorafenib, compared to sorafenib-alone control, FIG. 5B) | tumor volume ([7]; in combination with sorafenib, compared to sorafenib-alone control, FIG. 5C) | body weight change ([8]; in combination with sorafenib vs sorafenib-alone control, FIG. 6D) | tumor size ([8]; in combination with sorafenib, compared to sorafenib-alone control, FIG. 6A) | tumor weight ([8]; in combination with sorafenib, compared to sorafenib-alone control, FIG. 6B) | tumor volume ([8]; in combination with sorafenib, compared to sorafenib-alone control, FIG. 6C) |
| --- | --- | --- | --- | --- | --- | --- | --- | --- | --- | --- | --- | --- | --- | --- | --- | --- |
| CNC(=O)c1cc(Oc2ccc(NC(=O)Nc3ccc(Cl)c(C(F)(F)F)c3)cc2)ccn1 [sorafenib, reference compound] | did not increase | did not increase | not affected | not affected | – | – | – | – | – | – | – | – | – | – | – | – |
| CC(C)N1CCN(c2ccc(/C(=C(/CCCO)c3ccccc3)c3ccc(O)cc3)cc2)CC1 [DN200434] | – | – | – | – | increase | increase | significantly decreased | significantly decreased | no difference | significantly decreased | significantly decreased | significantly decreased | no difference | remarkably decreased | remarkably decreased | remarkably decreased |
